Measured values taken from US9409907B2, “Inhibitor compounds” (Cancer Research Technology Limited, priority 2012, dated 2016).

Target: full length MPS1 (Homo sapiens (Human), UniProt P33981)
Assay: Measurement of inhibition of MPS1 kinase (Caliper EZ reader mobility-shift enzyme assay)
Type: biochemical
Settings: full length MPS1 12.5 nM or 3 nM, H236 peptide 5 μM, ATP 10 μM, 60 min at room temperature
Method: Measurement of Inhibition of MPS1 Kinase
The reaction was carried out for 60 min at room temperature and stopped by the addition of buffer (10 μl) containing 20 mM EDTA, 0.05% (v/v) Brij-35, in 0.1M HEPES-buffered saline (Free acid, Sigma, UK). The plate was read on a Caliper EZ reader II (Caliper Life Sciences).
The % inhibition of the compounds is calculated relative to the means of selected control wells.

full length MPS1, sequence (P33981 whole entry): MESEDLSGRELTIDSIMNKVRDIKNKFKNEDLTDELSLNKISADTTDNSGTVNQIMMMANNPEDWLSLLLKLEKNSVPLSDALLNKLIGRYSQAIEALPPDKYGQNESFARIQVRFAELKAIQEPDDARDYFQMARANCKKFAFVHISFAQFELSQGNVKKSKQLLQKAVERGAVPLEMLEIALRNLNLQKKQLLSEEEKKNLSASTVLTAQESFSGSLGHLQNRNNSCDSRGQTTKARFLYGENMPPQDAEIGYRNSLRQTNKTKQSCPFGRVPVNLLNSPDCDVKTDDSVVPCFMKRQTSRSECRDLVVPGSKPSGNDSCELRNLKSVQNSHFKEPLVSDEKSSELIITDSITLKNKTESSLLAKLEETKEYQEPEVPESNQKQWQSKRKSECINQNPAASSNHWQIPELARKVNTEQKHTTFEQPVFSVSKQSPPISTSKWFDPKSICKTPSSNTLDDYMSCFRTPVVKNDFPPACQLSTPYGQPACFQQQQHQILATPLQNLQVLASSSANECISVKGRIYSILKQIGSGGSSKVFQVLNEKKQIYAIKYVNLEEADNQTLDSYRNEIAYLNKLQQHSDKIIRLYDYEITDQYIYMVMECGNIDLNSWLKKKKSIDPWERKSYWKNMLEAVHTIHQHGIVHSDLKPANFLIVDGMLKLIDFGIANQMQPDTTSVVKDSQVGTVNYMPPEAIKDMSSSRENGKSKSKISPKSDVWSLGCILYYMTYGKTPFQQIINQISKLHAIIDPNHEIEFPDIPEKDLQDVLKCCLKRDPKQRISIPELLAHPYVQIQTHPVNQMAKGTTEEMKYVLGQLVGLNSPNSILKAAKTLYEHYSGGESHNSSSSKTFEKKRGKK

SMILES	IC50 [nM]
COc1cc(-c2cnn(C)c2)ccc1Nc1ncc2ccnc(N(C)C3CCOCC3)c2n1 [Example 81, N2-(2-methoxy-4-(1-methyl-1H-pyrazol-4-yl)phenyl)-N8-methyl-N8-(tetrahydro-2H-pyran-4-yl)pyrido[3,4-d]pyrimidine-2,8-diamine]	33
COc1cc(-c2cnn(C)c2)ccc1Nc1ncc2ccnc(NC(C)(C)C)c2n1 [Example 82, N8-tert-butyl-N2-(2-methoxy-4-(1-methyl-1H-pyrazol-4-yl)phenyl)pyrido[3,4-d]pyrimidine-2,8-diamine]	25
COc1cc(-c2cnn(C)c2)ccc1Nc1ncc2ccnc(NC3(C)CCCCC3)c2n1 [Example 83, N2-(2-methoxy-4-(1-methyl-1H-pyrazol-4-yl)phenyl)-N8-(1-methylcyclohexyl)pyrido[3,4-d]pyrimidine-2,8-diamine]	19
COc1cc(-c2cnn(C)c2)ccc1Nc1ncc2ccnc(NCC(C)(F)F)c2n1 [Example 84, N8-(2,2-difluoropropyl)-N2-(2-methoxy-4-(1-methyl-1H-pyrazol-4-yl)phenyl)pyrido[3,4-d]pyrimidine-2,8-diamine]	14
COCC(C)(C)CNc1nccc2cnc(Nc3ccc(-c4cnn(C)c4)cc3OC)nc12 [Example 85, N8-(3-methoxy-2,2-dimethylpropyl)-N2-(2-methoxy-4-(1-methyl-1H-pyrazol-4-yl)phenyl)pyrido[3,4-d]pyrimidine-2,8-diamine]	24
COc1cc(-c2cnn(C)c2)ccc1Nc1ncc2ccnc(NCC(F)(F)F)c2n1 [Example 87, N2-(2-methoxy-4-(1-methyl-1H-pyrazol-4-yl)phenyl)-N8-(2,2,2-trifluoroethyl)pyrido[3,4-d]pyrimidine-2,8-diamine]	75
CCn1cc(-c2nccc3cnc(Nc4ccc(-c5cnn(C)c5)cc4OC)nc23)cn1 [Example 91, 8-(1-ethyl-1H-pyrazol-4-yl)-N-(2-methoxy-4-(1-methyl-1H-pyrazol-4-yl)phenyl)pyrido[3,4-d]pyrimidin-2-amine]	10
COc1cc(-c2cnn(C)c2)ccc1Nc1ncc2ccnc(-c3cnn(C(C)C)c3)c2n1 [Example 92, 8-(1-isopropyl-1H-pyrazol-4-yl)-N-(2-methoxy-4-(1-methyl-1H-pyrazol-4-yl)phenyl)pyrido[3,4-d]pyrimidin-2-amine]	14
COc1cc(-c2cnn(C)c2)ccc1Nc1ncc2ccnc(-c3cnn(CC(F)F)c3)c2n1 [Example 93, 8-(1-(2,2-difluoroethyl)-1H-pyrazol-4-yl)-N-(2-methoxy-4-(1-methyl-1H-pyrazol-4-yl)phenyl)pyrido[3,4-d]pyrimidin-2-amine]	10
COc1cc(-c2cnn(C)c2)ccc1Nc1ncc2ccnc(Cl)c2n1 [Example 94, 8-chloro-N-(2-methoxy-4-(1-methyl-1H-pyrazol-4-yl)phenyl)pyrido[3,4-d]pyrimidin-2-amine]	164
Cc1cc(-c2cnn(C)c2)ccc1Nc1ncc2ccnc(NCC3CC3)c2n1 [Example 99, N8-(cyclopropylmethyl)-N2-(2-methyl-4-(1-methyl-1H-pyrazol-4-yl)phenyl)pyrido[3,4-d]pyrimidine-2,8-diamine]	8
CCOc1cc(-c2cnn(C)c2)ccc1Nc1ncc2ccnc(NCC3CC3)c2n1 [Example 101, N8-(cyclopropylmethyl)-N2-(2-ethoxy-4-(1-methyl-1H-pyrazol-4-yl)phenyl)pyrido[3,4-d]pyrimidine-2,8-diamine]	49
CCOc1cc(-c2cnn(C)c2)ccc1Nc1ncc2ccnc(NC3CCOCC3)c2n1 [Example 102, N2-(2-ethoxy-4-(1-methyl-1H-pyrazol-4-yl)phenyl)-N8-(tetrahydro-2H-pyran-4-yl)pyrido[3,4-d]pyrimidine-2,8-diamine]	10
COc1cc(-c2cnn(C)c2)ccc1Nc1cc2c(-c3cnn(C)c3)nccc2cn1 [Example 103, N-(2-methoxy-4-(1-methyl-1H-pyrazol-4-yl)phenyl)-5-(1-methyl-1H-pyrazol-4-yl)-2,6-naphthyridin-3-amine]	12
COc1cc(-c2cnn(C)c2)ccc1Nc1cc2c(NC3CCCCC3)nccc2cn1 [Example 105, N1-cyclohexyl-N7-(2-methoxy-4-(1-methyl-1H-pyrazol-4-yl)phenyl)-2,6-naphthyridine-1,7-diamine]	56
COc1cc(-c2cnn(C)c2)ccc1Nc1cc2c(NCC3CC3)nccc2cn1 [Example 106, N1-(cyclopropylmethyl)-N7-(2-methoxy-4-(1-methyl-1H-pyrazol-4-yl)phenyl)-2,6-naphthyridine-1,7-diamine]	82
COc1cc(-c2cnn(C)c2)ccc1Nc1ncc2ccnc(NS(=O)(=O)C(C)(C)C)c2n1 [Example 107, N-(2-(2-methoxy-4-(1-methyl-1H-pyrazol-4-yl)phenylamino)pyrido[3,4-d]pyrimidin-8-yl)-2-methylpropane-2-sulfonamide]	39
COc1cc(-c2cnn(C)c2)ccc1Nc1ncc2ccnc(N(C)C)c2n1 [Example 108, N^2-(2-methoxy-4-(1-methyl-1H-pyrazol-4-yl)phenyl)-N^8,N^8-dimethylpyrido[3,4-d]pyrimidine-2,8-diamine]	16
CNc1nccc2cnc(Nc3ccc(-c4cnn(C)c4)cc3OC)nc12 [Example 110, N^2-(2-methoxy-4-(1-methyl-1H-pyrazol-4-yl)phenyl)-N^8-methylpyrido[3,4-d]pyrimidine-2,8-diamine]	17
COc1cc(-c2cnn(C)c2)ccc1Nc1ncc2ccnc(NC3COC3)c2n1 [Example 111, N^2-(2-methoxy-4-(1-methyl-1H-pyrazol-4-yl)phenyl)-N^8-(oxetan-3-yl)pyrido[3,4-d]pyrimidine-2,8-diamine]	> 1000

Further lines, results first:

IC50 [nM]	SMILES
3	COc1cc(-c2cnn(C)c2)ccc1Nc1ncc2ccnc(NC3CCOCC3)c2n1 [Example 69, N2-(2-methoxy-4-(1-methyl-1H-pyrazol-4-yl)phenyl)-N8-(tetrahydro-2H-pyran-4-yl)pyrido[3,4-d]pyrimidine-2,8-diamine]
6	COc1cc(-c2cnn(C)c2)ccc1Nc1ncc2ccnc(NCC(C)(C)O)c2n1 [Example 71, 1-((2-((2-methoxy-4-(1-methyl-1H-pyrazol-4-yl)phenyl)amino)pyrido[3,4-d]pyrimidin-8-yl)amino)-2-methylpropan-2-ol]
5	COc1cc(-c2cnn(C)c2)ccc1Nc1ncc2ccnc(NCC3COC3)c2n1 [Example 72, N2-(2-methoxy-4-(1-methyl-1H-pyrazol-4-yl)phenyl)-N8-(oxetan-3-ylmethyl)pyrido[3,4-d]pyrimidine-2,8-diamine]
4	COc1cc(-c2cnn(C)c2)ccc1Nc1ncc2ccnc(NCC(C)(C)CO)c2n1 [Example 74, 3-((2-((2-methoxy-4-(1-methyl-1H-pyrazol-4-yl)phenyl)amino)pyrido[3,4-d]pyrimidin-8-yl)amino)-2,2-dimethylpropan-1-ol]
4	COc1cc(-c2cnn(C)c2)ccc1Nc1ncc2ccnc(NC(C)C3CC3)c2n1 (stereo not shown) [Example 75, N8-(1-cyclopropylethyl)-N2-(2-methoxy-4-(1-methyl-1H-pyrazol-4-yl)phenyl)pyrido[3,4-d]pyrimidine-2,8-diamine]
8	COc1cc(-c2cnn(C)c2)ccc1Nc1ncc2ccnc(NC3CCOC3)c2n1 (stereo not shown) [Example 78, N2-(2-methoxy-4-(1-methyl-1H-pyrazol-4-yl)phenyl)-N8-(tetrahydrofuran-3-yl)pyrido[3,4-d]pyrimidine-2,8-diamine]
5	COc1cc(-c2cnn(C)c2)ccc1Nc1ncc2ccnc(NCC3CCOC3)c2n1 (stereo not shown) [Example 79, N2-(2-methoxy-4-(1-methyl-1H-pyrazol-4-yl)phenyl)-N8-((tetrahydrofuran-3-yl)methyl)pyrido[3,4-d]pyrimidine-2,8-diamine]
6	COc1cc(-c2cnn(C)c2)ccc1Nc1ncc2ccnc(N3CCC(O)C3)c2n1 (stereo not shown) [Example 80, 1-(2-(2-methoxy-4-(1-methyl-1H-pyrazol-4-yl)phenylamino)pyrido[3,4-d]pyrimidin-8-yl)pyrrolidin-3-ol]
5	COc1cc(-c2cnn(C)c2)ccc1Nc1ncc2ccnc(NCC(C)(C)OC)c2n1 [Example 86, N8-(2-methoxy-2-methylpropyl)-N2-(2-methoxy-4-(1-methyl-1H-pyrazol-4-yl)phenyl)pyrido[3,4-d]pyrimidine-2,8-diamine]
3	COc1cc(-c2cnn(C)c2)ccc1Nc1ncc2ccnc(N3CCC4(COC4)C3)c2n1 [Example 88, N-(2-methoxy-4-(1-methyl-1H-pyrazol-4-yl)phenyl)-8-(2-oxa-6-azaspiro[3.4]oxtan-6-yl)pyrido[3,4-d]pyrimidin-2-amine]
7	COc1cc(-c2cnn(C)c2)ccc1Nc1ncc2ccnc(NCC3(O)CCC3)c2n1 [Example 89, 1-((2-(2-methoxy-4-(1-methyl-1H-pyrazol-4-yl)phenylamino)pyrido[3,4-d]pyrimidin-8-ylamino)methyl)cyclobutanol]
7	COc1cc(-c2cnc(C)n2C)ccc1Nc1cc2c(-c3cnn(C)c3)nccc2cn1 [Example 104, N-(4-(1,2-dimethyl-1H-imidazol-5-yl)-2-methoxyphenyl)-5-(1-methyl-1H-pyrazol-4-yl)-2,6-naphthyridin-3-amine]
2	COc1cc(-c2cnn(C)c2)ccc1Nc1ncc2ccnc(NCC3(C)COC3)c2n1 [Example 109, N^2-(2-methoxy-4-(1-methyl-1H-pyrazol-4-yl)phenyl)-N^8-((3-methyloxetan-3-yl)methyl)pyrido(3,4-d]pyrimidine-2,8-diamine]
5	COc1cc(-c2cnn(C)c2)ccc1Nc1ncc2ccnc(NCC3(O)CC3)c2n1 [Example 112, 1-((2-(2-methoxy-4-(1-methyl-1H-pyrazol-4-yl)phenylamino)pyrido[3,4-d]pyrimidin-8-ylamino)methyl)cyclopropanol]
